Data on ten compounds can be found in PMC10865350, “Investigating Polypharmacology through Targeting Known Human Neutrophil Elastase Inhibitors to Proteinase 3” (Journal of Chemical Information and Modeling, 2024).

The test system of test [1] is human neutrophil elastase (HNE). As to conditions: Bayer HealthCare AG value; cited from earlier work.
The test system is the same in test [2]. As to the kind of experiment: HNE inhibition IC50 reported by Bayer HealthCare AG (literature values). It counts as biochemical. As to conditions: 298.15 K; calculated from Bayer HealthCare AG IC50 values, Nussbaum et al. refs 9-11. From the text:
To ensure we had the best models to represent the selected ligands and their interactions with the protein, we explored four different force field combinations for protein and ligands (Table 2) and compared the predicted values to published experimental data for HNE. […] The predicted free energies obtained with MSλD are provided in Table S3 together with the free energies derived from published experimental data.

The target in test [3] is T1, HNE (Homo sapiens, UniProt P08246).
T1 construct: purchased Athens Research and Technology
T1 sequence (P08246 30-267): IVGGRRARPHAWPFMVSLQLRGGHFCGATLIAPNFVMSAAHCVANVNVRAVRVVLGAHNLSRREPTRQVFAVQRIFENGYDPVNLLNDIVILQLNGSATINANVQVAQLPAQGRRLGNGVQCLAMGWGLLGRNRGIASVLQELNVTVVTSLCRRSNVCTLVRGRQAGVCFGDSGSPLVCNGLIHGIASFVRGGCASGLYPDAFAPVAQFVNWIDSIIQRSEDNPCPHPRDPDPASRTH
The experiment in a line: Enzymatic activity assay, HNE (fluorogenic substrate MeOSuc-AAPV-AMC). The format is biochemical. As to conditions: best enantiomer for compounds 5-8. As to the method:
(§1) II.1 Experimental details
(§2) Chemicals. All chemicals and reagents were of analytical grade. Enzymes, PR3 and HNE, were purchased from Athens Research and Technology.
(§3) India) using published procedures.42 The substrate of HNE (MeOSuc-AAPV-AMC) was supplied by Santa Cruz Biotechnology.
(§4) Activity assay. The enzymatic assays for both PR3 and HNE were conducted according to the method published in (Budnjo et al., 2014) with minor modifications. Briefly, 0.5 nM of enzyme […]
(§5) same buffer containing the inhibitors at various concentrations for 30 min at RT. For PR3, the […]
(§6) 320, emission filter 420) at a final concentration of 5 μM while the HNE reaction was started by […]
(§7) at a final concentration of 5 μM. The fluorescent signal was read every 30 second for 30 min at 30 °C using a fluorescent plate reader (Tecan Spark). The enzymatic activity was measured from the initial linear portion of the slope (fluorescent signal/min) of the time-course curve of reaction progress. The activity data were produced in triplicates. Data were fitted using nonlinear regression analysis (GraphPad Prism v.9) to determine the IC50 values.

Test [4] concerns the target T2, Proteinase 3 (PR3) (Homo sapiens, UniProt P24158).
T2 construct: purchased Athens Research and Technology
T2 sequence (P24158 28-256): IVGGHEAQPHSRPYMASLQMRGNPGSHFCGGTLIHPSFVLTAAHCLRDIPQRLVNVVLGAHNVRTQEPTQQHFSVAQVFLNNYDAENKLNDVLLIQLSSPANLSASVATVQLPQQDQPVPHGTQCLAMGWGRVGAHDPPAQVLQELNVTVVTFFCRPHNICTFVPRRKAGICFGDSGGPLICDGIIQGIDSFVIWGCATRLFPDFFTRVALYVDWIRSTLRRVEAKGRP
The experiment in a line: Enzymatic activity assay, PR3 (FRET peptide Abz-VADnVADYQ-EDDnp). The format is biochemical. As to conditions: best enantiomer for compounds 5-8. As for the experimental part:
as §1, §2, §3, §4, §5, §6, §7

Test [5] deals with Proteinase 3 (PR3). Described as above. As to conditions: selectivity: PR3 IC50 with respect to HNE IC50. It counts as biochemical, human. As to the method: as §1, §2, §3, §4, §5, §6, §7
[6] abbreviates: 0.5 nM enzyme, 5 μM substrate, triplicates, read-out: IC50 HNE.
Setting [7] is: read-out: pIC50 HNE (converted).
[8] abbreviates: 0.5 nM enzyme, 5 μM FRET peptide, triplicates, read-out: IC50 PR3.

Where two headings read alike, the source gives them in different places.

Consider `CC1=C(C#N)[C@@H](c2ccc(C#N)cc2)n2nc(NC(=O)C3CCCCC3)nc2N1c1cccc(C(F)(F)F)c1` [Compound 11], for which the IC50 in test [1] was less than 0.3 nM.
On to `CNS(=O)(=O)Nc1nc2n(n1)[C@H](c1ccc(C#N)cc1)C(C#N)=C(C)N2c1cccc(C(F)(F)F)c1` [Compound 10], for which, in test [2], the “ΔGexpt HNE (ΔG = RTln(IC50))” value is -9.9 kcal/mol. Further, in test [1], the IC50 was 50 nM.
Consider `COc1nc2n(n1)[C@H](c1ccc(C#N)cc1)C(C#N)=C(C)N2c1cccc(C(F)(F)F)c1` [Compound 4], for which the “ΔGexpt HNE (ΔG = RTln(IC50))” value in test [2] is on record as -9.7 kcal/mol. In addition, in test [1], the IC50 was 69 nM.
For the compound `CC1=C(C#N)[C@@H](c2ccc(C#N)cc2)n2ncnc2N1c1cccc(C(F)(F)F)c1` [Compound 2], the “ΔGexpt HNE (ΔG = RTln(IC50))” value in test [2] is reported as -10.6 kcal/mol. For the same compound, the IC50 in test [1] is 15 nM.
As for `CNc1nc2n(n1)[C@H](c1ccc(C#N)cc1)C(C#N)=C(C)N2c1cccc(C(F)(F)F)c1` [Compound 5], the “ΔGexpt HNE (ΔG = RTln(IC50))” value in test [2] was -12.5 kcal/mol. Further, the IC50 was 1.3 ± 0.2 nM in test [3] (setting [6]), 1.26 nM in test [3] (setting [7]), 190 ± 10 nM in test [4] (setting [8]) and 0.59 nM in test [1]. For the same compound, the “IC50 ratio (PR3/HNE)” value in test [5] came out at 146.
On to `CC1=C(C#N)[C@@H](c2ccc(C#N)cc2)n2nc(N)nc2N1c1cccc(C(F)(F)F)c1` [Compound 3], for which the “ΔGexpt HNE (ΔG = RTln(IC50))” value in test [2] is -11.7 kcal/mol. Besides, the IC50 in test [1] was 2.5 nM.
Consider `CC1=C(C#N)[C@@H](c2ccc(C#N)cc2)n2nc(NS(C)(=O)=O)nc2N1c1cccc(C(F)(F)F)c1` [Compound 9], for which the “ΔGexpt HNE (ΔG = RTln(IC50))” value in test [2] is listed as -10.8 kcal/mol. Also, the IC50 in test [1] is 12 nM.
Consider `CC1=C(C#N)[C@@H](c2ccc(C#N)cc2)n2nc(NC(=O)C3CC3)nc2N1c1cccc(C(F)(F)F)c1` [Compound 6], for which the “ΔGexpt HNE (ΔG = RTln(IC50))” value in test [2] is on record as -12.8 kcal/mol. For the same compound, the IC50 in test [3] (setting [6]) is 0.6 nM; in test [3] (setting [7]), 0.794 nM; in test [4] (setting [8]), 7.7 ± 0.6 nM; in test [1], 0.35 nM. For the same compound, the “IC50 ratio (PR3/HNE)” value in test [5] turned out to be 13.
`COC(=O)Nc1nc2n(n1)[C@H](c1ccc(C#N)cc1)C(C#N)=C(C)N2c1cccc(C(F)(F)F)c1` [Compound 7]: the “ΔGexpt HNE (ΔG = RTln(IC50))” value in test [2] is on record as -13.3 kcal/mol. Further, the IC50 in test [3] (setting [6]) was 1.1 ± 0.1 nM; in test [3] (setting [7]), 1.26 nM; in test [4] (read-out: pIC50 PR3 (converted)), 20 nM; in test [1], 0.17 nM. Besides, in test [5], the “IC50 ratio (PR3/HNE)” value worked out at 19.
With `CNC(=O)Nc1nc2n(n1)[C@H](c1ccc(C#N)cc1)C(C#N)=C(C)N2c1cccc(C(F)(F)F)c1` [Compound 8], in test [2], the “ΔGexpt HNE (ΔG = RTln(IC50))” value is listed as -12.9 kcal/mol. The IC50 is 0.8 ± 0.1 nM in test [3] (setting [6]), 0.794 nM in test [3] (setting [7]), 58.9 ± 6 nM in test [4] (setting [8]) and 0.3 nM in test [1]. The “IC50 ratio (PR3/HNE)” value in test [5] is 74.
